# In ChEMBL document CHEMBL2163293, “Rational approaches to improving selectivity in drug design” (J Med Chem, 2012):
# Biological target: Protease (Human immunodeficiency virus 1, UniProt Q9YQ12)
# Test: Inhibition of HIV1 protease
# Chain of Protease (Q9YQ12 whole entry): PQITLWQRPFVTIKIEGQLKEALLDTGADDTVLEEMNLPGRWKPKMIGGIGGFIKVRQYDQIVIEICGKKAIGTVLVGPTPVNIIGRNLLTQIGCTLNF
structure (smiles),measurement,value
CC(=O)N[C@H](C(=O)N[C@H](C(=O)N[C@@H](CC(C)C)[C@@H](O)CC(=O)N[C@@H](C)C(=O)N[C@@H](CC(C)C)[C@@H](O)CC(=O)O)C(C)C)C(C)C [ACETYLPEPSTATIN],Ki,0.02 nM
